Test results reported in patent US11192921B2 (priority 2017, dated 2021).
Values joined by “and” are separate entries in the source; they are usually repeats but may differ in a detail not shown here. Identical values can stand only once. Like-named read-outs stand apart in the source and are kept apart here. Marks after values point to notes of the source that are not given here. No end group written: not given here.

Experiments:
Female Kunming mice [1] = tested on: Female Kunming mice
SD rats = test: pain threshold of trigeminal nerve (trigeminal neuralgia model); type: in vivo; conditions: for highest pain threshold on the operative side / pain threshold on the opposite side: 3 h after injection; for Pain threshold: intraperitoneal
Female Kunming mice [2] = tested on: Female Kunming mice; remark: listed apart in the source
Female Kunming mice [3] = type: in vivo
male BALB/c mice [4] = test: cancer-induced pain (CIP) model, gross behavior; type: in vivo; conditions: 14th day after inoculation
Description: (§1) BALB/c mice were taken, and the right sciatic nerve was exposed; ascites containing 5×10^4 Meth A sarcoma cells were injected into the proximal nerve near the sciatic nerve trochanter far from the tendon branch of the posterior biceps, the wound was closed, and the same volume of normal saline was injected into the left side by performing a sham operation.
On the 4th, 7th, 10th and 14th days after inoculation, spontaneous pain and foot drop and the like occurred before the occurrence of thermal sensitivity and mechanical pain sensitivity behaviors, […]

Female Kunming mice [5] = tested on: Female Kunming mice; remark: listed apart in the source
Kunming mice [6] = conditions: mouse, in vivo
male BALB/c mice [7] = test: cancer-induced pain (CIP) model, thermosensitive test; type: in vivo; conditions: heat radiation stimulation
Description: Influence of Analgesic Polypeptides on Neuralgia in a Cancer-Induced Pain (CIP) Model
A number of male BALB/c mice each weighing 25-30 g were used.
Von Fery monofilament; a microsyringe, 5 mg/mL solutions of polypeptides I, II and II I; normal saline.
as §1
1.3.1 Thermosensitive Test
On the 4th, 7th, 10th and 14th days after inoculation, the latency of foot lifting caused by heat radiation stimulation to animals was observed, and the heat radiation intensity was adjusted to cause the latency of foot lifting of normal mice to be (10±2) s.
All data was expressed as M±SD and subjected to one-way ANOVA.

Kunming mice [8] = type: in vivo
[9] = 50 μg/kg, injected subcutaneously
[10] = 100 μg/kg, injected subcutaneously

Sequence: GSCSTPPSAVLYC (cysteine pairing not given here) [Polypeptide II]
- Duration of the immobility of mice in tail suspension tests (Female Kunming mice [1]; 1 h): 19.47 ± 1.32^ s
- Duration of the immobility of mice in tail suspension tests (Female Kunming mice [1]; 24 h): 19.03 ± 2.48 s
- Duration of the immobility of mice in tail suspension tests (Female Kunming mice [1]; Time 0): 20.98 ± 1.28 s
- data of tail suspension test compared with the normal saline group (Female Kunming mice [1]; mouse, in vivo, ip): no significant difference
- toxic side effects compared with the conotoxin (tail suspension) (Female Kunming mice [1]; mouse, in vivo, ip): lower toxic side effects
- animal reaction thresholds (SD rats; 50 μg/kg and 100 μg/kg, injected subcutaneously): significantly increased
- time the pain thresholds lasted (SD rats; [9]): 1 h
- highest pain threshold on the operative side (SD rats; [9]): 2.3 ± 0.5 g
- pain threshold on the opposite side (SD rats; [9]): 1.2 ± 0.2 g
- time the effect on the operative side lasted (SD rats; [10]): about 8 h
- highest pain threshold on the operative side (SD rats; [10]): 7.4 ± 0.9 g
- pain threshold on the opposite side (SD rats; [10]): 3.2 ± 1.3 g
- pain threshold change (SD rats; 300 μg/kg, subcutaneously): not significantly increased
- Pain threshold (SD rats; Dose 50 (μg/kg), 0 h): 25.56 ± 0.65 s
- Pain threshold (SD rats; Dose 50 (μg/kg), 1 h): 25.23 ± 0.44 s
- Pain threshold (SD rats; Dose 50 (μg/kg), 2 h): 26.62 ± 0.56 s
- Pain threshold (SD rats; Dose 50 (μg/kg), 3 h): 26.46 ± 0.62 s
- Pain threshold (SD rats; Dose 50 (μg/kg), 4 h): 27.15 ± 0.56 s
- Pain threshold (SD rats; Dose 50 (μg/kg), 5 h): 26.62 ± 0.13 s
- Pain threshold (SD rats; Dose 100 (μg/kg), 0 h): 25.87 ± 0.23 s
- Pain threshold (SD rats; Dose 100 (μg/kg), 1 h): 26.12 ± 0.62 s
- Pain threshold (SD rats; Dose 100 (μg/kg), 2 h): 27.16 ± 0.32 s
- Pain threshold (SD rats; Dose 100 (μg/kg), 3 h): 27.65 ± 0.32 s
- Pain threshold (SD rats; Dose 100 (μg/kg), 4 h): 26.23 ± 0.62 s
- Pain threshold (SD rats; Dose 100 (μg/kg), 5 h): 25.13 ± 0.32 s
- Pain threshold (SD rats; Dose 300 (μg/kg), 0 h): 26.41 ± 0.66 s
- Pain threshold (SD rats; Dose 300 (μg/kg), 1 h): 30.12 ± 0.56 s
- Pain threshold (SD rats; Dose 300 (μg/kg), 2 h): 30.61 ± 0.62 s
- Pain threshold (SD rats; Dose 300 (μg/kg), 3 h): 29.52 ± 0.95 s
- Pain threshold (SD rats; Dose 300 (μg/kg), 4 h): 28.62 ± 0.61 s
- Pain threshold (SD rats; Dose 300 (μg/kg), 5 h): 27.92 ± 0.61 s
- Movement distances of mice in open field tests (Female Kunming mice [2]; 1 h): 19.47 ± 1.32^
- Movement distances of mice in the center area in open field tests (Female Kunming mice [2]; 1 h): 19.47 ± 1.32^
- Movement distances of mice in the peripheral area in open field tests (Female Kunming mice [2]; 1 h): 19.47 ± 1.32^
- Number of entrances to the center area in open field tests (Female Kunming mice [2]; 1 h): 19.47 ± 1.32^
- Number of entrances to the peripheral area in open field tests (Female Kunming mice [2]; 1 h): 19.47 ± 1.32^
- Residence time in the center area in open field tests (Female Kunming mice [2]; 1 h): 19.47 ± 1.32^ s
- Residence time in the peripheral area in open field tests (Female Kunming mice [2]; 1 h): 19.47 ± 1.32^ s
- Movement distances of mice in open field tests (Female Kunming mice [2]; 24 h): 19.03 ± 2.48 m
- Movement distances of mice in the center area in open field tests (Female Kunming mice [2]; 24 h): 19.03 ± 2.48 m
- Movement distances of mice in the peripheral area in open field tests (Female Kunming mice [2]; 24 h): 19.03 ± 2.48 m
- Number of entrances to the center area in open field tests (Female Kunming mice [2]; 24 h): 19.03 ± 2.48
- Number of entrances to the peripheral area in open field tests (Female Kunming mice [2]; 24 h): 19.03 ± 2.48
- Residence time in the center area in open field tests (Female Kunming mice [2]; 24 h): 19.03 ± 2.48 s
- Residence time in the peripheral area in open field tests (Female Kunming mice [2]; 24 h): 19.03 ± 2.48 s
- Movement distances of mice in open field tests (Female Kunming mice [2]; Time 0): 20.98 ± 1.28 m
- Movement distances of mice in the center area in open field tests (Female Kunming mice [2]; Time 0): 20.98 ±1.28 m
- Movement distances of mice in the peripheral area in open field tests (Female Kunming mice [2]; Time 0): 20.98 ± 1.28 m
- Number of entrances to the center area in open field tests (Female Kunming mice [2]; Time 0): 20.98 ± 1.28
- Number of entrances to the peripheral area in open field tests (Female Kunming mice [2]; Time 0): 20.98 ± 1.28
- Residence time in the center area in open field tests (Female Kunming mice [2]; Time 0): 20.98 ± 1.28 s
- Residence time in the peripheral area in open field tests (Female Kunming mice [2]; Time 0): 20.98 ± 1.28 s
- side effects compared with conotoxin (open field) (Female Kunming mice [2]; mouse, in vivo, ip): lower side effects
- various indexes in open field experiments compared with the normal saline group (Female Kunming mice [2]; mouse, in vivo, ip): no significant difference
- Pain threshold (Female Kunming mice [3]; 0 min): 27.43 ± 0.54^∧ s
- Pain threshold (Female Kunming mice [3]; mouse, in vivo, ip): 42.54 ± 0.24^∧ s and 22.33 ± 0.36 s and 27.45 ± 0.52 s and 31.34 ± 0.45*^∧ s and 25.43 ± 0.54^∧ s and 26.24 ± 0.42 s
- heat thresholds of mice compared with the normal saline negative control group (Female Kunming mice [3]; mouse, in vivo, ip): effectively increase the heat thresholds of mice
- increase of the pain threshold compared with the normal saline group and the conotoxin group (Female Kunming mice [3]; mouse, in vivo, ip): significantly higher
- left foot lifting behavior (male BALB/c mice [4]): obviously observed
- Movement duration of mice in forced swimming tests (Female Kunming mice [5]; 1 h): 19.47 ± 1.32^ s
- Movement duration of mice in forced swimming tests (Female Kunming mice [5]; 24 h): 19.03 ± 2.48 s
- Movement duration of mice in forced swimming tests (Female Kunming mice [5]; Time 0): 20.98 ± 1.28 s
- toxic side effects compared with the conotoxin (forced swimming) (Female Kunming mice [5]; mouse, in vivo, ip): lower toxic side effects
- analgesic effects in formalin-induced pain experiments (Kunming mice [6]): good analgesic effects
- cumulative foot licking time, Phase I (Kunming mice [6]): 48.20 ± 11.31*^
- cumulative foot licking time, Phase II (Kunming mice [6]): 40.53 ± 14.32
- Latency of foot lifting before administration (male BALB/c mice [7]; before administration): 10.12 ± 1.64
- Latency (D) of foot lifting after administration (male BALB/c mice [7]; day 4): 9.87 ± 0.78
- Latency (D) of foot lifting after administration (male BALB/c mice [7]; day 7): 8.75 ± 0.89
- Latency (D) of foot lifting after administration (male BALB/c mice [7]; day 10): 8.31 ± 0.92
- Latency (D) of foot lifting after administration (male BALB/c mice [7]; day 14): 6.56 ± 0.56
- Pain threshold (tail flick) (Kunming mice [8]; 0 min): 2.43 ± 0.21^∧ s
- Pain threshold (tail flick) (Kunming mice [8]; 15 min): 2.52 ± 0.24 s
- Pain threshold (tail flick) (Kunming mice [8]; 30 min): 2.31 ± 0.36 s
- Pain threshold (tail flick) (Kunming mice [8]; 45 min): 2.45 ± 0.12 s
- Pain threshold (tail flick) (Kunming mice [8]; 60 min): 2.12 ± 0.41 s
- Pain threshold (tail flick) (Kunming mice [8]; 75 min): 2.23 ± 0.14^∧ s
- Pain threshold (tail flick) (Kunming mice [8]; 90 min): 2.24 ± 0.12 s
